Measured values published in patent publication US11820766B2, “Monoacylglycerol lipase modulators” (Janssen Pharmaceutica NV, priority 2018, dated 2023).
pIC50: −log10 of the molar value.

molecular target: T1, human MGL from HeLa cells (Homo sapiens, UniProt Q99685); test: In vitro MGL activity assay: [glycerol-1,3-3H]-oleyl glycerol cleavage by MGL from HeLa cells; format: biochemical; settings: 300 nM [Glycerol-1,3-3H]-oleyl glycerol, one hour
T1 construct: combining endogenously expressed MGL from HeLa cells with test compounds; endogenous in cells; host or cells: HeLa cells / cell homogenates
T1 sequence (Q99685 1-303): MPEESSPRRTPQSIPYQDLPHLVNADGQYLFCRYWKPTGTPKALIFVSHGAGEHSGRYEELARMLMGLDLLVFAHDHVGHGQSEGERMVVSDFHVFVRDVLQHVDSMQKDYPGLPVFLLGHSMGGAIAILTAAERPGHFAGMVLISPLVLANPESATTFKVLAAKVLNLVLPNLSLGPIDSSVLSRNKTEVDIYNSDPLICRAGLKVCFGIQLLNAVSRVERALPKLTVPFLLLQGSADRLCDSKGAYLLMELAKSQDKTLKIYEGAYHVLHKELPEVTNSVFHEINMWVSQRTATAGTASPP
From the text: MGL is the predominant hydrolase in HeLa cells/cell homogenates.

SMILES	pIC50
C[C@H]1c2nn(C)c(-c3cc(F)c(F)c(F)c3)c2CCN1C(=O)c1nccn2cccc12 [Example 415, [(7S)-2,7-Dimethyl-3-(3,4,5-trifluorophenyl)-5,7-dihydro-4H-pyrazolo[3,4-c]pyridin-6-yl]-pyrrolo[1,2-a] pyrazin-1-yl-methanone]	7.88
C[C@H]1c2nn(C)c(-c3cc(F)c(F)c(F)c3)c2CCN1C(=O)c1cnn2c1OCCC2 [Example 554, 6,7-Dihydro-5H-pyrazolo[5,1-b][1,3]oxazin-3-yl-[(7S)-2,7-dimethyl-3-(3,4,5-trifluorophenyl)-5,7-dihydro-4H-pyrazolo[3,4-c]pyridin-6-yl]methanone]	7.24
Cc1cc2nc(C)c(C(=O)N3CCc4c(nn(C)c4-c4cc(F)c(F)c(F)c4)[C@@H]3C)n2cc1F [Example 409, [(7S)-2,7-Dimethyl-3-(3,4,5-trifluorophenyl)-5,7-dihydro-4H-pyrazolo[3,4-c]pyridin-6-yl]-(6-fluoro-2,7-dimethyl-imidazo[1,2-a]pyridin-3-yl)methanone]	7.12
Cc1c[nH]c2ncnc(C(=O)N3CCc4c(nn(C)c4-c4cc(F)c(F)c(F)c4)[C@@H]3C)c12 [Example 464, [(7S)-2,7-Dimethyl-3-(3,4,5-trifluorophenyl)-5,7-dihydro-4H-pyrazolo[3,4-c]pyridin-6-yl]-(5-methyl-7H-pyrrolo[2,3-d]pyrimidin-4-yl)methanone]	7.50
C[C@H]1c2nn(C)c(-c3cc(F)c(F)c(F)c3)c2CCN1C(=O)c1c[nH]c2ncccc12 [Example 373, [(7S)-2,7-Dimethyl-3-(3,4,5-trifluorophenyl)-5,7-dihydro-4H-pyrazolo[3,4-c]pyridin-6-yl]-(1H-pyrrolo[2,3-b]pyridin-3-yl)methanone]	7.63
Cc1nc2cc(F)ccn2c1C(=O)N1CCc2c(nn(C)c2-c2cc(F)c(F)c(F)c2)[C@@H]1C [Example 402, [(7S)-2,7-Dimethyl-3-(3,4,5-trifluorophenyl)-5,7-dihydro-4H-pyrazolo[3,4-c]pyridin-6-yl]-(7-fluoro-2-methyl-imidazo[1,2-a]pyridin-3-yl)methanone]	7.66
C[C@H]1c2nn(C)c(-c3cc(F)cc(OC(F)F)c3)c2CCN1C(=O)c1ccc2c(c1)OCCC2 [Example 596, Chroman-7-yl-[(7S)-3-[3-(difluoromethoxy)-5-fluoro-phenyl]-2,7-dimethyl-5,7-dihydro-4H-pyrazolo[3,4-c]pyridin-6-yl]methanone]	7.54
C[C@H]1c2nn(C)c(-c3cc(F)c(F)c(F)c3)c2CCN1C(=O)c1ncnc2c1ncn2C [Example 606, [(7S)-2,7-Dimethyl-3-(3,4,5-trifluorophenyl)-5,7-dihydro-4H-pyrazolo[3,4-c]pyridin-6-yl]-(9-methylpurin-6-yl)methanone]	6.14
C[C@H]1c2nn(C)c(-c3cc(F)c(F)c(F)c3)c2CCN1C(=O)c1cccc2oc(=O)[nH]c12 [Example 584, 4-[(7S)-2,7-Dimethyl-3-(3,4,5-trifluorophenyl)-5,7-dihydro-4H-pyrazolo[3,4-c]pyridine-6-carbonyl]-3H-1,3-benzoxazol-2-one]	6.52
C[C@H]1c2nn(C)c(-c3cc(F)c(F)c(F)c3)c2CCN1C(=O)c1ccc2nccn2c1 [Example 391, [(7S)-2,7-Dimethyl-3-(3,4,5-trifluorophenyl)-5,7-dihydro-4H-pyrazolo[3,4-c]pyridin-6-yl]-imidazo[1,2-a]pyridin-6-yl-methanone]	6.99

Next, values leading:

pIC50	SMILES
8.14	C[C@H]1c2nn(C)c(-c3csc(C(F)(F)F)c3)c2CCN1C(=O)c1ccc2ncccc2c1 [Example 524, [(7S)-2,7-Dimethyl-3-[5-(trifluoromethyl)-3-thienyl]-5,7-dihydro-4H-pyrazolo[3,4-c]pyridin-6-yl]-(6-quinolyl)methanone]
6.46	C[C@H]1c2nn(C)c(-c3ccc(F)cc3Cl)c2CCN1C(=O)c1ccc2ncccc2c1 [Example 506, [(7S)-3-(2-Chloro-4-fluoro-phenyl)-2,7-dimethyl-5,7-dihydro-4H-pyrazolo[3,4-c]pyridin-6-yl]-(6-quinolyl)methanone]
6.96	C[C@H]1c2nn(C)c(-c3cc(F)c(F)c(F)c3)c2CCN1C(=O)c1ccnc2c1CCOC2 [Example 565, 6,8-Dihydro-5H-pyrano[3,4-b]pyridin-4-yl-[(7S)-2,7-dimethyl-3-(3,4,5-trifluorophenyl)-5,7-dihydro-4H-pyrazolo[3,4-c]pyridin-6-yl]methanone]

same assay, conditions: 300 nM [Glycerol-1,3-3H]-oleyl glycerol, one hour incubation

SMILES	pIC50
C[C@H]1c2nn(C)c(-c3cncc(F)c3)c2CCN1C(=O)c1ccc2nccnc2c1 [Example 109, (S)-(3-(5-Fluoropyridin-3-yl)-2,7-dimethyl-2,4,5,7-tetrahydro-6H-pyrazolo[3,4-c]pyridin-6-yl)(quinoxalin-6-yl)methanone]	6.14
CC1c2nn(C)c(-c3cc(F)cc(Cl)c3)c2CCN1C(=O)c1ccc2nccnc2c1 (stereo not drawn) [Example 180, (3-(3-Chloro-5-fluorophenyl)-2,7-dimethyl-2,4,5,7-tetrahydro-6H-pyrazolo[3,4-c]pyridin-6-yl)(quinoxalin-6-yl)methanone]	7.50
Cc1ccc(-n2nccn2)c(C(=O)N2CCc3c(nn(C)c3-c3cc(F)c(F)c(F)c3)[C@@H]2C)n1 [Example 319, [(7S)-2,7-Dimethyl-3-(3,4,5-trifluorophenyl)-5,7-dihydro-4H-pyrazolo[3,4-c]pyridin-6-yl]-[6-methyl-3-(triazol-2-yl)-2-pyridyl]methanone]	6.59
C[C@H]1c2nn(C)c(-c3cc(F)c(F)c(F)c3)c2CCN1C(=O)c1cn(C2CC2)nc1C(F)(F)F [Example 332, [1-Cyclopropyl-3-(trifluoromethyl)pyrazol-4-yl]-[(7S)-2,7-dimethyl-3-(3,4,5-trifluorophenyl)-5,7-dihydro-4H-pyrazolo[3,4-c]pyridin-6-yl]methanone]	6.84
C[C@H]1c2nn(C)c(-c3cc(F)c(F)c(F)c3)c2CCN1C(=O)c1cc(F)cc(-n2cncn2)c1 [Example 277, [(7S)-2,7-Dimethyl-3-(3,4,5-trifluorophenyl)-5,7-dihydro-4H-pyrazolo[3,4-c]pyridin-6-yl]-[3-fluoro-5-(1,2,4-triazol-1-yl)phenyl]methanone]	7.66
C[C@H]1c2nn(C)c(-c3cc(F)cc(F)c3)c2CCN1C(=O)c1cccc(OCCF)c1Cl [Example 145, [2-Chloro-3-(2-fluoroethoxy)phenyl]-[(7S)-3-(3,5-difluorophenyl)-2,7-dimethyl-5,7-dihydro-4H-pyrazolo[3,4-c]pyridin-6-yl]methanone]	8.67
COc1cnc(C)c(C(=O)N2CCc3c(nn(C)c3-c3cc(F)c(F)c(F)c3)[C@@H]2C)c1 [Example 308, [(7S)-2,7-Dimethyl-3-(3,4,5-trifluorophenyl)-5,7-dihydro-4H-pyrazolo[3,4-c]pyridin-6-yl]-(5-methoxy-2-methyl-3-pyridyl)methanone]	6.94

The next lines start with the values.

pIC50	SMILES
6.36	COc1ccc(C(=O)N2CCc3c(nn(C)c3-c3ccccc3)C2)cc1OC [Example 9, (3,4-Dimethoxyphenyl)(2-methyl-3-phenyl-2,4,5,7-tetrahydro-6H-pyrazolo[3,4-c]pyridin-6-yl)methanone]
5.66	Cn1nc2c(c1-c1ccccc1)CCN(C(=O)c1ccc3cn[nH]c3c1)C2 [Example 68, (1H-Indazol-6-yl)(2-methyl-3-phenyl-2,4,5,7-tetrahydro-6H-pyrazolo[3,4-c]pyridin-6-yl)methanone]
5.68	Cn1ncc(C(=O)N2CCc3c(nn(C)c3-c3ccccc3)C2)c1Cl [Example 20, (5-Chloro-1-methyl-1H-pyrazol-4-yl)(2-methyl-3-phenyl-2,4,5,7-tetrahydro-6H-pyrazolo[3,4-c]pyridin-6-yl)methanone]
7.49	Cn1nc2c(c1-c1ccccc1)CCN(C(=O)c1noc3ccccc13)C2 [Example 53, Benzo[d]isoxazol-3-yl(2-methyl-3-phenyl-2,4,5,7-tetrahydro-6H-pyrazolo[3,4-c]pyridin-6-yl)methanone]
5.70	Cc1cccc2cc(C(=O)N3CCc4c(nn(C)c4-c4ccccc4)C3)[nH]c12 [Example 50, (7-Methyl-1H-indol-2-yl)(2-methyl-3-phenyl-2,4,5,7-tetrahydro-6H-pyrazolo[3,4-c]pyridin-6-yl)methanone]
6.48	CC(C)Oc1ccc(C(=O)N2CCc3c(nn(C)c3-c3cccc(Cl)c3)[C@@H]2C)cn1 [Example 121, (S)-(3-(3-Chlorophenyl)-2,7-dimethyl-2,4,5,7-tetrahydro-6H-pyrazolo[3,4-c]pyridin-6-yl)(6-isopropoxypyridin-3-yl)methanone]
5.29	Cn1nc2c(c1-c1ccccc1)CCN(C(=O)c1ccc3cncn3c1)C2 [Example 77, Imidazo[1,5-a]pyridin-6-yl(2-methyl-3-phenyl-2,4,5,7-tetrahydro-6H-pyrazolo[3,4-c]pyridin-6-yl)methanone]
5.32	Cc1c(C(=O)N2CCc3c(nn(C)c3-c3ccccc3)C2)cccc1N1CCOCC1 [Example 19, (2-Methyl-3-morpholinophenyl)(2-methyl-3-phenyl-2,4,5,7-tetrahydro-6H-pyrazolo[3,4-c]pyridin-6-yl)methanone]
7.18	C[C@H]1c2nn(C)c(-c3cc(F)c(F)c(F)c3)c2CCN1C(=O)c1ncn(-c2ccccn2)n1 [Example 323, [(7S)-2,7-Dimethyl-3-(3,4,5-trifluorophenyl)-5,7-dihydro-4H-pyrazolo[3,4-c]pyridin-6-yl]-[1-(2-pyridyl)-1,2,4-triazol-3-yl]methanone]
7.78	COc1cccc(C(=O)N2CCc3c(nn(C)c3-c3ccccc3)C2)c1Cl [Example 13, (2-Chloro-3-methoxyphenyl)(2-methyl-3-phenyl-2,4,5,7-tetrahydro-6H-pyrazolo[3,4-c]pyridin-6-yl)methanone]
